Data reported in patent US10836795B2, “Dual functional novel peptide having cell permeability and bone tissue regeneration ability, and use thereof” (SEOUL NATIONAL UNIVERSITY R&DB FOUNDATION, priority 2016, dated 2020).
Where a SMILES comes first, the peptide text is derived from it.

Assays:
[1] = test system: dental pulp stem cells; experiment: Cell permeability of FITC-labeled peptides by confocal microscopy; type: cell-based; settings: for cell permeation ability / efficiency: 50-1000 μM; for fluorescence expression at highest concentration: 1000 uM
Procedure: In order to identify the cell permeability of the peptides set forth in SEQ ID NOS: 1 to 6 synthesized in Example 2, fluorescein isothiocyanate (FITC) was attached to the N-terminus of each peptide. Dental pulp stem cells were seeded at a density of 3×10^4 cells into a 4-well chamber and cultured in DMEM medium for 24 hours for cell stabilization. 24 hours later, the cells were treated with the FITC-labeled peptide at various concentrations (50 μM, 100 μM, 200 μM, 500 μM, 1000 μM) for 30 minutes. The cells were treated with 100 ng/ml of copine 7 protein for 30 minutes in order to compare the cell permeability thereof with the peptide. Then, in order to compare the intracellular permeation behaviors of these peptides or the protein, each well was treated with 4% paraformaldehyde, fixed at room temperature for 10 minutes, treated with 0.5% Triton-X 100, and cultured at room temperature for 15 minutes. Then, the cells were blocked with a buffer solution (PBS) containing 3% bovine serum albumin (BSA) for 30 minutes. In the case of copine 7 protein, a CPNE7 primary antibody was diluted at a ratio of 1:100 in a buffer solution (PBS) containing 1% bovine serum albumin and reacted at 4° C. for 16 hours. A fluorescein isothiocyanate (FITC)-conjugated secondary antibody was diluted at a ratio of 1:200 and reacted at room temperature for 1 hour. Finally, the nuclei-staining dye (Hoechst 33342, blue) was treated at room temperature for 10 minutes and washed with a buffer solution (PBS), and the fluorescence intensity thereof was measured using a confocal scanning microscope (IX 70, Olympus Co, Tokyo, Japan) to determine the degree of expression. All values were expressed as mean±SD of the fluorescence intensities measured in three different areas, and were compared with the control group (no treatment, NT) (*P<0.05).

[2] = test system: skull of a New Zealand white rabbit; experiment: Bone regeneration ability of a peptide-containing bone graft material in a rabbit skull defect; type: in vivo; settings: 3 weeks after graft
Procedure: 20 mg and 40 mg of the peptide shown in SEQ ID NO: 4 were dissolved in 100 μL of purified water, and the solution was added to 0.1 g of a bone graft material, allowed to stand at 4° C. for 24 hours and lyophilized. The copine 7 protein was used as a control group in the same manner as above and was incorporated in amounts of 100 μg and 200 μg in 0.1 g of a bone graft material. A defect part with a diameter of 8 mm was formed in the skull of a New Zealand white rabbit (cuniculus) and implanted with 0.1 g of a bone graft material in each defect part. The periosteum and skin were double-sutured. The animal was sacrificed 3 weeks after graft, and the specimen was fixed in a formalin solution and embedded in tissues to obtain a specimen with a thickness of 20 um. The prepared specimen was stained with basic fuchsin and toluidine blue to prepare a non-decalcified sample. The sample was imaged with an optical microscope and analyzed histologically. All values were expressed as mean±SD (SD) of areas measured in three different samples and compared with copine 7 protein (*P<0.05).

[3] = test system: osteocalcin in dental pulp stem cells (DPSCs); experiment: Bone differentiation ability: osteocalcin expression by immunofluorescence; type: cell-based
Procedure: In order to identify the bone differentiation ability of the peptide set forth in SEQ ID NO: 4, which was determined to have the best cell penetration function in Example 4, and the copine 7 protein, expression difference of osteocalcin in dental pulp stem cells (DPSCs) was evaluated.
For this purpose, 1×10^5 DPSCs were suspended in 50 μl of a medium (Dulbecco's Modified Eagle's Medium, Gibco, USA) supplemented with 10% FBS (fetal bovine serum) and a 1% antibiotic-antimycotic solution (Thermo Fisher Scientific, USA) in a 24-well plate. The cells were cultured for 24 hours and then treated with the peptide set forth in SEQ ID NO: 4 at concentrations of 200 μM and 500 μM and the copine 7 protein at a concentration of 100 ng/ml, respectively, while replacing the medium with Differentiation basal medium-Osteogenic (Lonza, USA) supplemented with a supplement (hMSC Osteogenic SingleQuots, Lonza, USA) for 18 days. […] Finally, the cells were treated with the nuclei-staining dye (Hoechst 33342, blue) at room temperature for 10 minutes and washed with buffer (PBS), and the expression level of osteocalcin was determined with a confocal scanning microscope (IX 70, Olympus Co, Tokyo, Japan). All values were expressed as mean±SD of fluorescence intensity measured in three different areas and were compared with the control group (no treatment, NT) (*P<0.05).

[4] = test system: dental pulp stem cells; experiment: MTT assay, in-vitro cytotoxicity of synthetic peptides; type: cell-based; settings: 50-2000 μM, 24, 48 and 72 hours
Procedure: A cell viability test was performed to evaluate the cytotoxicity of the peptides set forth in SEQ ID NOS: 1 to 6 synthesized in Example 2 above. For this purpose, dental pulp stem cells were seeded at a density of 9×10^3 cells per well into each well of a 96-well polystyrene plate in a Dulbecco's Modified Eagle's Medium (Gibco, USA) supplemented with 10% FBS (fetal bovine serum) and a 1% antibiotic-antimycotic solution (Thermo Fisher Scientific, USA), and then cultured for 24 hours. Each well was treated with various concentrations (50 μM, 100 μM, 200 μM, 400 μM, 500 μM, 800 μM, 1000 μM and 2000 μM) of the peptides set forth in SEQ ID NOS: 1 to 6. After 24 hours (1 day), 48 hours (2 days) and 72 hours (3 days), an MTT assay was performed to identify the cytotoxicity of the peptides. For the MTT assay, the medium was removed 24 hours, 48 hours, and 72 hours after treatment with peptide and each well was then treated with a mixture of 180 μl of a DMEM medium and 20 μl of a MTT solution, followed by further culturing for 1 hour. One hour later, the mixed solution was removed, each well was treated with 200 μl of dimethyl sulfoxide (DMSO) and the mixed solution was then transferred into a new 96-well plate and the cytotoxicity thereof was measured. All values were expressed as mean±standard deviation (SD) for triplicate experiments and the measured values are shown in FIG. 3.

[5] = FITC-labeled peptide, 30 minutes, FIG. 4

## FEEGQAQWDCVNPKYKQKRR (Dual functional candidate peptide for cell penetration and bone tissue regeneration) [SEQ ID NO: 3, peptide from copine 7 protein, position 331-350]
[1]; [5]
  cell permeation ability / efficiency: relatively excellent cell permeation efficiency

## VNPKYKQKRR (Dual functional peptide for cell penetration and bone tissue regeneration) [SEQ ID NO: 4, peptide from copine 7 protein, position 341-350]
[2]; bone graft material with 20 mg or 40 mg peptide versus 100 μg or 200 μg copine 7 protein, FIG. 7A
  effect of regenerating new bone at the skull defect part: excellent effect of regenerating new bone
[2]; versus copine 7 protein, FIG. 7B
  bone regeneration area (histomorphometric analysis): significantly wider bone regeneration area than the copine 7 protein
[3]; 200 μM and 500 μM peptide versus 100 ng/ml group, 18 days, FIG. 6
  expression degree of osteocalcin as fluorescence intensity: relatively stronger fluorescence intensity
[3]; DPSCs, 18 days in osteogenic medium
  bone differentiation ability compared with copine 7 protein: superior to the copine 7 protein
[1]; FITC-labeled peptide, 100 μM, 30 minutes, FIG. 4
  fluorescence at 100 μM: had fluorescence
[1]; [5]
  cell permeation ability / efficiency: best cell permeation efficiency
[1]; versus 100 ng/ml copine 7 protein, 30 minutes, FIG. 5A
  cell permeability compared with copine 7 protein (confocal microscope): better cell permeability than the copine 7 protein
[1]; versus 100 ng/ml copine 7 protein, FIG. 5B
  quantified fluorescence intensity compared with copine 7 protein: strong fluorescence intensity compared to the copine 7 protein

## STTFEEMQKA (Dual functional candidate peptide for cell penetration and bone tissue regeneration) [SEQ ID NO: 1, peptide from copine 7 protein, position 321-330]
[1]; [5]
  fluorescence expression at highest concentration: no fluorescence expression
  cell permeation ability / efficiency: no cell permeation ability

## FEEGQAQWDC (Dual functional candidate peptide for cell penetration and bone tissue regeneration) [SEQ ID NO: 2, peptide from copine 7 protein, position 331-340]
[1]; [5]
  fluorescence expression at highest concentration: weak fluorescence

## CC(C)C[C@H](NC(=O)[C@@H](NC(=O)[C@@H](NC(=O)[C@@H](NC(=O)CNC(=O)[C@H](CO)NC(=O)[C@H](CC(N)=O)NC(=O)[C@H](CCCCN)NC(=O)[C@H](Cc1ccc(O)cc1)NC(=O)[C@H](CO)NC(=O)[C@H](CCCNC(=N)N)NC(=O)[C@H](CCCNC(=N)N)NC(=O)[C@H](CCCCN)NC(=O)[C@H](CCC(N)=O)NC(=O)[C@H](CCCCN)NC(=O)[C@H](Cc1ccc(O)cc1)NC(=O)[C@H](CCCCN)NC(=O)[C@@H]1CCCN1C(=O)[C@H](CC(N)=O)NC(=O)[C@@H](N)C(C)C)C(C)C)C(C)C)C(C)C)C(N)=O [SEQ ID NO: 6] (H-VNPKYKQKRRSYKNSGVVVL-NH2)
[4]
  cytotoxicity (MTT assay): intracellularly toxic

## CC(C)C[C@H](NC(=O)[C@@H](NC(=O)[C@@H](NC(=O)[C@@H](NC(=O)CNC(=O)[C@H](CO)NC(=O)[C@H](CC(N)=O)NC(=O)[C@H](CCCCN)NC(=O)[C@H](Cc1ccc(O)cc1)NC(=O)[C@@H](N)CO)C(C)C)C(C)C)C(C)C)C(N)=O [SEQ ID NO: 5, SYKNSGVVVL] (H-SYKNSGVVVL-NH2)
[4]
  cytotoxicity (MTT assay): intracellularly toxic
